The text below walks through data of patent publication US10202340B2, “Glucosylceramide synthase inhibitors and therapeutic methods using the same” (THE REGENTS OF THE UNIVERSITY OF MICHIGAN, priority 2015, dated 2019).

As a reminder, the IC50 is the concentration that gives 50% inhibition.

Series [1] is described as follows: Mouse liver microsome stability. It is filed as in vitro ADME. Particulars: mouse liver microsomes; read-out: Mouse liver microsome t1/2. Here is the method: Selected compounds were incubated with mouse liver microsomes to assess their stability to oxidative metabolism by cytochrome P450 enzymes (Table 1).
(In general: Liver microsomes are vesicles of endoplasmic reticulum, rich in cytochrome P450 enzymes.)

Series [2] deals with glucosylceramide synthase (GCS) (Canis lupus familiaris, UniProt A0A8I3MXG6). Kind of series: GCS activity, broken cell assay (inhibition of GlcCer synthesis in broken wild-type MDCK cell preparations). Particulars: mean of n > 2 experiments. It is filed as biochemical, canine. On the procedure:
Enzyme activity was measured as described previously (9). Madin-Darby canine kidney (MDCK) cell homogenates (120 μg of protein) were incubated with uridine diphosphate-[^3H]glucose (100,000 cpm) and liposomes consisting of 85 μg of octanoylsphingosine, 570 μg of dioleoylphosphatidylcholine, and 100 μg of sodium sulfatide in a 200 μL reaction mixture and kept for 1 h at 37° C.

A further series addresses GCS in WT-MDCKII cells (Canis lupus familiaris, UniProt A0A8I3MXG6). Kind of series: Inhibition of GlcCer production in whole wild-type MDCKII cells. Particulars: 24 hours, read-out: WT-MDCK IC50. It is filed as cell-based, canine. Here is the method:
(§1) Parental (WT-)MDCKII cells and MDCKII cells retrovirally transduced with human MDR-1 cDNA were obtained from the Netherlands Cancer Institute. Both cell lines were routinely maintained in medium consisting of Opti-MEM/F12 (1:1), 5% FBS, 100 U/mL of penicillin, 100 μg/mL streptomycin and […] L-glutamine. MDCKII cells were newly thawed from frozen ampules every two months.
(§2) Stock solutions of water-insoluble glycosphingolipid inhibitors (100 mM) were prepared by dissolving each inhibitor into 100% ethanol as previously described (3). The inhibitor-ethanol solutions then were diluted 50× into 2 mM delipidated bovine serum albumin-phosphate buffered saline solution to make water-soluble glycosphingolipid inhibitor-bovine serum albumin complexes. The inhibitor-bovine serum album complexes were sterile-filtered and stored at −20° C. Prior to use, portions of the inhibitor-bovine serum albumin complexes were further diluted with Opti-F12 to make treatment solutions. Equal amounts of bovine serum albumin and ethanol were added into the control cultures. WT and MDR1-MDCKII cells (5×10^5) were seeded into 10-cm culture dishes containing 10 ml of Opti-F12 with 5% FBS.
(§3) Following inhibitor treatment, whole cellular lipids of wild type and MDR1-MDCKII cells were extracted as previously described in detail (10). Briefly, cells were washed with ice-cold phosphate buffered saline, fixed by methanol, and collected with rubber scraper. Chloroform was then added to yield a theoretical ratio of chloroform:methanol:water at 1:2:0.8 (v/v/v) to form a mono-phase. Cell debris and proteins were removed by centrifugation at 2200×g for 30 min. The supernatants were portioned by adding chloroform and 0.9% NaCl. The lower organic phases containing neutral glycosphingolipids lipids were washed with methanol and 0.9% NaCl, and subjected to base- and acid-hydrolysis (10). A portion of purified glycosphingolipids normalized to 100 nmol of total phospholipids was analyzed by high performance thin layer chromatography. The thin layer chromatography separations were processed twice. The plate pretreated with 1% sodium borate was first developed in a solvent system consisting of chloroform/methanol (98/2, v/v). After air drying, the plate was then developed in a solvent system containing chloroform/methanol/water (70/30/4, v/v/v). The levels of glucosylceramide were detected by charring with 8% cupric sulfate in 8% phosphoric acid, and quantified by densitometric scanning using ImageJ, NIH Image.

The target of a further series is GCS in MDR1-MDCKII cells (Canis lupus familiaris, UniProt A0A8I3MXG6). Particulars: read-out: MDR1-MDCKII IC50; MDCKII cells stably expressing human MDR1, 24 hours. On the procedure:
as §1, §2, §3

The subject of series [3] is brain glucosylceramide (GlcCer). In words: Brain glucosylceramide (GlcCer) content in WT mice. Particulars: for reduction in brain GlcCer levels / reduction of brain GlcCer levels: WT mice. The class given is in vivo, mouse. On the procedure:
Lipid extractions of liver, kidney, and brain were performed as previously described (7). Briefly, frozen liver (about 0.5 g), two kidneys (about 0.3 g) and whole brain (about 0.4 g) were individually homogenized in sucrose buffer (250 mM sucrose, pH 7.4, 10 mM HEPES and 1 mM EDTA), at 0.2 g tissue/1 mL of sucrose buffer, with a Tri-R homogenizer. Each 0.8 mL of homogenate was mixed with 2 mL of methanol and 1 mL of chloroform, bath sonicated for 1 min and incubated at room temperature for 1 h. Tissue debris were removed by centrifugation at 2,400× gravity for 30 min. The pellets were re-extracted by mixing with 1 mL of methanol, 0.5 mL of chloroform and 0.4 mL of 0.9% NaCl (chloroform/methanol/0.9% NaCl, 1:2:0.8), incubated at room temperature for 1 h and centrifuged at 2,400× gravity for another 30 min. Two extracts were combined and mixed with 4.5 mL of chloroform and 1.2 mL of 0.9% NaCl (chloroform/methanol/0.9% NaCl, 2:1:0.8). After centrifugation at 800× gravity for 5 min, lower layer was washed with 3 mL of methanol and 2.4 mL of 0.9% NaCl. Second washing was carried with 3 mL of methanol, 2 mL of water and 0.4 mL of 0.9% NaCl followed by a 5 min centrifugation at 800× gravity. The resultant lower phase was collected and dried under a stream of N2 gas.
The analysis of neutral glycosphingolipids from mouse liver, kidney, and brain was processed after alkaline methanolysis. […] lipids were incubated with 2 mL of chloroform and 1 ml of 0.21N NaOH in methanol for 2 h (kidney) or 7.5 h (liver and brain) at RT. The lipid extract was normalized to 0.5 μmol of total phospholipid phosphate (liver and kidney) or 2 μmol of total phospholipid phosphate (brain) for high performance thin layer chromatography analysis. After alkaline methanolysis, the brain lipids were passed through a silica gel column (7). Borate-impregnated thin layer chromatography plates were developed in a two solvent system. Plates were first developed in chloroform/methanol (98:2, v/v). The plates loaded with kidney and liver lipids were then developed in chloroform/methanol/water (64:24:4, v/v/v), and brain lipids were further separated in chloroform/methanol/water (60:30:6, v/v/v). GlcCer levels were quantified by comparison to known standards.
In another test, a dose ranging study for brain glucosylceramide (GlcCer) content was performed using the compound of Example 7. FIG. 1 contains bar graphs showing the GluCer levels in treated and untreated WT mouse brain at low doses for 3 days (FIG. 1A) and high doses for 3 days (FIG. 1B). […] FIG. 1C compares the GlcCer levels in treated and untreated WT mouse brain for 7 days comparing oral gavage vs. IP injection. […] FIG. 2 contains comparative brain GlcCer level data obtained with the Control Compound, dosed at 10 mg/kg IP (FIG. 2A) or 60 mg/kg IP (FIG. 2B) in WT mice for 3 days.

Series [4] is described as follows: Brain and plasma drug levels after single oral dose in CD-1 mice. It is filed as in vivo, mouse.
Setting [5] is: mouse, brain, single 20 mg/kg PO, female CD-1 mice, read-out: Drug level in brain.
Setting [6] is: mouse, plasma, single 20 mg/kg PO, female CD-1 mice, read-out: Drug level in plasma.
The mark [7] stands for this setting: mouse, plasma, single 20 mg/kg PO, female CD-1 mice, 7 hrs, read-out: Drug level in plasma.

The structures appear in SMILES notation. Where a name gives a salt, the structure may show the parent alone. Read-outs that look alike come from different tables or passages of the source.

Chain of GCS in WT-MDCKII cells (A0A8I3MXG6 1-394): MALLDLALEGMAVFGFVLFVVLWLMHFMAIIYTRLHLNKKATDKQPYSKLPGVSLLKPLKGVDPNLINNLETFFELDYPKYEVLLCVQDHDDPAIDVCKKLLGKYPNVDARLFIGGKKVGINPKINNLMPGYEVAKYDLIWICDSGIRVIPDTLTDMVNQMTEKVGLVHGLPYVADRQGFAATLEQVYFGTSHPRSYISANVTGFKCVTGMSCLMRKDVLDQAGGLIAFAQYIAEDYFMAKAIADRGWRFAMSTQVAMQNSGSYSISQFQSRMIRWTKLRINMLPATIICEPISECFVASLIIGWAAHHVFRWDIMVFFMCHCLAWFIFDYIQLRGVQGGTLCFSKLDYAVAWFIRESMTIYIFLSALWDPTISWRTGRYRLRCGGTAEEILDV
Chain of glucosylceramide synthase (GCS) (A0A8I3MXG6 1-394): as above
Chain of GCS in MDR1-MDCKII cells (A0A8I3MXG6 1-394): as above

As for `COc1ccc([C@@H](O)[C@@H](CN2CCCC2)NC(=O)CC2Cc3ccccc3C2)cc1F` [Example 1, 2-(2,3-dihydro-1H-inden-2-yl)-N-((1R,2R)-1-(3-fluoro-4-methoxyphenyl)-1-hydroxy-3-(pyrrolidin-1-yl)propan-2-yl)acetamide], in series [1], the half-life was determined as 2.7 min.
Same read-out and setting: as for `COc1ccc([C@@H](O)[C@@H](CN2CCCC2)NC(=O)CC2Cc3ccccc3C2)cc1` [Example 2, 2-(2,3-dihydro-1H-inden-2-yl)-N-((1R,2R)-1-hydroxy-1-(4-methoxyphenyl)-3-(pyrrolidin-1-yl)propan-2-yl)acetamide], the figure is 5.5 min; as for `COc1cccc([C@@H](O)[C@@H](CN2CCCC2)NC(=O)CC2Cc3ccccc3C2)c1` [Example 3, 2-(2,3-dihydro-1H-inden-2-yl)-N-((1R,2R)-1-hydroxy-1-(3-methoxyphenyl)-3-(pyrrolidin-1-yl)propan-2-yl)acetamide], 4 min.
For the compound `COc1ccccc1[C@@H](O)[C@@H](CN1CCCC1)NC(=O)CC1Cc2ccccc2C1` [Example 4, 2-(2,3-dihydro-1H-inden-2-yl)-N-((1R,2R)-1-hydroxy-1-(2-methoxyphenyl)-3-(pyrrolidin-1-yl)propan-2-yl)acetamide], the results for the IC50 (in series [2]; on GCS in WT-MDCKII cells; on GCS in MDR1-MDCKII cells) were 44 nM, 5 nM and 56 nM, respectively.
For the compound `O=C(CC1Cc2ccccc2C1)N[C@H](CN1CCCC1)[C@H](O)c1ccc(OC(F)(F)F)cc1` [Example 7, 2-(2,3-dihydro-1H-inden-2-yl)-N-((1R,2R)-1-hydroxy-3-(pyrrolidin-1-yl)-1-(4-(trifluoromethoxy)phenyl)propan-2-yl)acetamide], the half-life in series [1] turned out to be 37 min. For the same compound, the “reduction in brain GlcCer levels” value in series [3] (1 mg/kg IP, 3 days) is on record as “Near maximal reduction”; in series [3] (oral dosing at 10 mg/kg, 7 days), “significant reductions”. Besides, the “reduction of brain GlcCer levels” value in series [3] (1 mg/kg IP, 3 days) was 35%. Further, the concentration at 1 h in series [4] (setting [5]) is 193 ng/g; in series [4] (setting [6]), 463 ng/g. For the same compound, the concentration at 7 h in series [4] (mouse, brain, single 20 mg/kg PO, female CD-1 mice, 7 hrs, read-out: Drug level in brain) worked out at 68 ng/g; in series [4] (setting [7]), 52 ng/g.
As for `O=C(CC1Cc2ccccc2C1)N[C@H](CN1CCCC1)[C@H](O)c1ccc(OCC2CC2)cc1` [Example 11, N-((1R,2R)-1-(4-(cyclopropylmethoxy)phenyl)-1-hydroxy-3-(pyrrolidin-1-yl)propan-2-yl)-2-(2,3-dihydro-1H-inden-2-yl)acetamide], the IC50 was found to be 46 nM in series [2], 1 nM at GCS in WT-MDCKII cells and 0.84 nM on GCS in MDR1-MDCKII cells.
For the compound `O=C(CC1Cc2ccccc2C1)N[C@H](CN1CCCC1)[C@H](O)c1ccc(OCC(F)(F)F)cc1` [Example 12, 2-(2,3-dihydro-1H-inden-2-yl)-N-((1R,2R)-1-hydroxy-3-(pyrrolidin-1-yl)-1-(4-(2,2,2-trifluoroethoxy)phenyl)propan-2-yl)acetamide], the half-life in series [1] stood at 11 min.
Take `O=C(CC1Cc2ccccc2C1)N[C@H](CN1CCCC1)[C@H](O)c1cccc(OC(F)(F)F)c1` [Example 14, 2-(2,3-dihydro-1H-inden-2-yl)-N-((1R,2R)-1-hydroxy-3-(pyrrolidin-1-yl)-1-(3-(trifluoromethoxy)phenyl)propan-2-yl)acetamide]: the IC50 at GCS in WT-MDCKII cells amounted to 50 nM.
As to `O=C(CC1Cc2ccccc2C1)N[C@H](CN1CC[C@@H](F)C1)[C@H](O)c1ccc(OC(F)(F)F)cc1` [Example 16, 2-(2,3-dihydro-1H-inden-2-yl)-N-((1R,2R)-3-((R)-3-fluoropyrrolidin-1-yl)-1-hydroxy-1-(4-(trifluoromethoxy)phenyl)propan-2-yl)acetamide], the IC50 in series [2] was above 300 nM; on GCS in WT-MDCKII cells, 23 nM; at GCS in MDR1-MDCKII cells it was 47 nM.
For the compound `O=C(CC1Cc2ccccc2C1)N[C@H](CN1CCC1)[C@H](O)c1ccc(OC(F)(F)F)cc1` [Example 17, N-((1R,2R)-3-(azetidin-1-yl)-1-hydroxy-1-(4-(trifluoromethoxy)phenyl)propan-2-yl)-2-(2,3-dihydro-1H-inden-2-yl)acetamide], in series [1], the half-life was above 60 min.
Consider `O=C(CC1Cc2ccccc2C1)N[C@H](CN1CCCC1)[C@H](O)c1ccc2c(c1)OCCO2` [control], for which the IC50 was 15 nM at GCS in WT-MDCKII cells and 24 nM at GCS in MDR1-MDCKII cells. The half-life in series [1] came to 1.5 min. The “reduction of brain GlcCer levels” value in series [3] (60 mg/kg IP, 3 days) stood at 17%. In addition, in series [4] (female, mouse, brain/plasma, 20 mg/kg, single oral dose, CD-1 mice, at one hour, read-out: brain/plasma ratio), the Kp at 1 h stood at 0.25. For the same compound, the concentration at 1 h is 5 ng/g in series [4] (setting [5]) and 20 ng/g in series [4] (setting [6]). In addition, the concentration at 7 h in series [4] (setting [7]) was found to be 9 ng/g. The “Drug level in brain” value in series [4] (single 20 mg/kg PO, female CD-1 mice, 7 hrs) is recorded as “BLQ*”.
For `CCCCCCCC(=O)N[C@H](CN1CCCC1)[C@H](O)c1ccc2c(c1)OCCO2` [eliglustat tartrate, N-((1R,2R)-1-(2,3-dihydrobenzo-[b][1,4]dioxin-6-yl)-1-hydroxy-3-(pyrrolidin-1-yl)propan-2-yl)octanamide, reference compound], in series [3] (mice, intraperitoneal administration for 3 days), the “decrease in brain glucosylceramide content” value is “not seen”.
